Columns and labels:
Assay in all cases: drug sensitivity score (DSS2, normalised partial AUC of dose-response, 72 h CellTiter-Glo viability) (DSS (dimensionless)); higher = more sensitive (stronger growth inhibition / cytotoxicity); extreme values may be limits of the assay
CAF#6 = test system: CAF#6 (primary prostate cancer-associated fibroblasts of iCAF-like type)
Procedure, shortened: (§1)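 Viability of low-passage primary prostate cancer-associated fibroblasts, PF179T, WPMY-1, LNCaP and 22Rv1 cells was read by CellTiter-Glo 2.0 luminescence 72 h after seeding onto compounds pre-dispensed in 384-well plates at five doses over a 10,000-fold range. Readings were scaled between vehicle and positive-control wells. Sensitivity is reported as a drug sensitivity score from BREEZE, namely a partial area under the fitted logistic curve divided by the log of its upper asymptote, where higher means more sensitive.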

CAF#3 = test system: CAF#3 (primary prostate cancer-associated fibroblasts of myCAF-like type)
Procedure, shortened: as §1

CAF#4 = test system: CAF#4 (primary prostate cancer-associated fibroblasts of iCAF-like type)
Procedure, shortened: as §1

CAF#5 = test system: CAF#5 (primary prostate cancer-associated fibroblasts of myCAF-like type)
Procedure, shortened: as §1

WPMY-1 = test system: WPMY-1
Procedure, shortened: as §1

PF179T = test system: PF179T
Procedure, shortened: as §1

LNCAP = test system: LNCAP
Procedure, shortened: as §1

CAF#2 = test system: CAF#2 (primary prostate cancer-associated fibroblasts of iCAF-like type)
Procedure, shortened: as §1

CAF#1 = test system: CAF#1 (primary prostate cancer-associated fibroblasts of myCAF-like type)
Procedure, shortened: as §1

CAF#7 = test system: CAF#7 (primary prostate cancer-associated fibroblasts of myCAF-like type)
Procedure, shortened: as §1

22Rv1 = test system: 22Rv1
Procedure, shortened: as §1

CCCS(=O)(=O)Nc1ccc(F)c(C(=O)c2c[nH]c3ncc(-c4ccc(Cl)cc4)cc23)c1F [Vemurafenib] (tested concentration range 1-10000 nM)
drug sensitivity score (CAF#6): 0.8 | drug sensitivity score (CAF#3): 4.4 | drug sensitivity score (CAF#4): 3 | drug sensitivity score (CAF#5): 4.7 | drug sensitivity score (WPMY-1): 1.9 | drug sensitivity score (PF179T): 2.8 | drug sensitivity score (LNCAP): 3 | drug sensitivity score (CAF#2): 5.3 | drug sensitivity score (CAF#1): 4.3 | drug sensitivity score (CAF#7): 1.6 | drug sensitivity score (22Rv1): 3.4

CC1(C)CCC(CN2CCN(c3ccc(C(=O)NS(=O)(=O)c4ccc(NCC5CCOCC5)c([N+](=O)[O-])c4)c(Oc4cnc5[nH]ccc5c4)c3)CC2)=C(c2ccc(Cl)cc2)C1 [Venetoclax] (tested concentration range 0.1-1000 nM)
drug sensitivity score (CAF#6): 0 | drug sensitivity score (CAF#3): 0 | drug sensitivity score (CAF#4): 0 | drug sensitivity score (CAF#5): 0 | drug sensitivity score (WPMY-1): 0 | drug sensitivity score (PF179T): 0 | drug sensitivity score (LNCAP): 0 | drug sensitivity score (CAF#2): 0 | drug sensitivity score (CAF#1): 0 | drug sensitivity score (CAF#7): 0 | drug sensitivity score (22Rv1): 0

CCCCOc1nc(N)c2c(n1)N(Cc1cccc(CN3CCCC3)c1)CC(=O)N2 [Vesatolimod] (tested concentration range 1-10000 nM)
drug sensitivity score (CAF#6): 0 | drug sensitivity score (CAF#3): 0 | drug sensitivity score (CAF#4): 0 | drug sensitivity score (CAF#5): 0 | drug sensitivity score (WPMY-1): 0 | drug sensitivity score (PF179T): 0 | drug sensitivity score (LNCAP): 0 | drug sensitivity score (CAF#2): 0 | drug sensitivity score (CAF#1): 0 | drug sensitivity score (CAF#7): 0 | drug sensitivity score (22Rv1): 0

CC[C@]1(O)C[C@@H]2CN(CCc3c([nH]c4ccccc34)[C@@](C(=O)OC)(c3cc4c(cc3OC)N(C)[C@H]3[C@@](O)(C(=O)OC)[C@H](OC(C)=O)[C@]5(CC)C=CCN6CC[C@]43[C@@H]65)C2)C1 [Vinblastine] (tested concentration range 0.1-1000 nM)
drug sensitivity score (CAF#6): 5.1 | drug sensitivity score (CAF#3): 2.8 | drug sensitivity score (CAF#4): 3.6 | drug sensitivity score (CAF#5): 5.2 | drug sensitivity score (WPMY-1): 11.9 | drug sensitivity score (PF179T): 5.9 | drug sensitivity score (LNCAP): 24.7 | drug sensitivity score (CAF#2): 5.6 | drug sensitivity score (CAF#1): 4.1 | drug sensitivity score (CAF#7): 7.5 | drug sensitivity score (22Rv1): 7.7

CC[C@]1(O)C[C@H]2CN(CCc3c([nH]c4ccccc34)[C@@](C(=O)OC)(c3cc4c(cc3OC)N(C=O)[C@H]3[C@@](O)(C(=O)OC)[C@H](OC(C)=O)[C@]5(CC)C=CCN6CC[C@]43[C@@H]65)C2)C1 [Vincristine] (tested concentration range 0.1-1000 nM)
drug sensitivity score (CAF#6): 5.6 | drug sensitivity score (CAF#3): 4.7 | drug sensitivity score (CAF#4): 2 | drug sensitivity score (CAF#5): 4.3 | drug sensitivity score (WPMY-1): 12.1 | drug sensitivity score (PF179T): 4.5 | drug sensitivity score (LNCAP): 26 | drug sensitivity score (CAF#2): 5.1 | drug sensitivity score (CAF#1): 4.4 | drug sensitivity score (CAF#7): 11.5 | drug sensitivity score (22Rv1): 12.3

CC[C@]12C=CCN3CC[C@@]4(c5cc([C@@]6(C(=O)OC)C[C@@H]7C[C@@H](C(C)(F)F)CN(Cc8c6[nH]c6ccccc86)C7)c(OC)cc5N(C)[C@H]4[C@@](O)(C(=O)OC)[C@@H]1OC(C)=O)[C@@H]32 [Vinflunine] (tested concentration range 0.1-1000 nM)
drug sensitivity score (CAF#6): 2.4 | drug sensitivity score (CAF#3): 2 | drug sensitivity score (CAF#4): 0.1 | drug sensitivity score (CAF#5): 1.1 | drug sensitivity score (WPMY-1): 5.5 | drug sensitivity score (PF179T): 3.8 | drug sensitivity score (LNCAP): 4.3 | drug sensitivity score (CAF#2): 0.9 | drug sensitivity score (CAF#1): 0.9 | drug sensitivity score (CAF#7): 4.4 | drug sensitivity score (22Rv1): 4.8

CCC1=C[C@@H]2CN(C1)Cc1c([nH]c3ccccc13)[C@@](C(=O)OC)(c1cc3c(cc1OC)N(C)[C@H]1[C@@](O)(C(=O)OC)[C@H](OC(C)=O)[C@]4(CC)C=CCN5CC[C@]31[C@@H]54)C2 [Vinorelbine] (tested concentration range 1-10000 nM)
drug sensitivity score (CAF#6): 19.6 | drug sensitivity score (CAF#3): 15.3 | drug sensitivity score (CAF#4): 12.6 | drug sensitivity score (CAF#5): 18.1 | drug sensitivity score (WPMY-1): 36.9 | drug sensitivity score (PF179T): 19.7 | drug sensitivity score (LNCAP): 42 | drug sensitivity score (CAF#2): 20.1 | drug sensitivity score (CAF#1): 17.3 | drug sensitivity score (CAF#7): 26 | drug sensitivity score (22Rv1): 31.3

CS(=O)(=O)c1ccc(C(=O)Nc2ccc(Cl)c(-c3ccccn3)c2)c(Cl)c1 [Vismodegib] (tested concentration range 1-10000 nM)
drug sensitivity score (CAF#6): 0 | drug sensitivity score (CAF#3): 1.5 | drug sensitivity score (CAF#4): 0 | drug sensitivity score (CAF#5): 0 | drug sensitivity score (WPMY-1): 0 | drug sensitivity score (PF179T): 0 | drug sensitivity score (LNCAP): 0.2 | drug sensitivity score (CAF#2): 0 | drug sensitivity score (CAF#1): 0 | drug sensitivity score (CAF#7): 0 | drug sensitivity score (22Rv1): 0

CNC(=O)c1cccc(-c2ccc3c(N4CCOC[C@@H]4C)nc(N4CCOC[C@@H]4C)nc3n2)c1 [Vistusertib] (tested concentration range 1-10000 nM)
drug sensitivity score (CAF#6): 14 | drug sensitivity score (CAF#3): 14.8 | drug sensitivity score (CAF#4): 17.9 | drug sensitivity score (CAF#5): 19.6 | drug sensitivity score (WPMY-1): 13.7 | drug sensitivity score (PF179T): 16.2 | drug sensitivity score (LNCAP): 19.4 | drug sensitivity score (CAF#2): 15.8 | drug sensitivity score (CAF#1): 17.7 | drug sensitivity score (CAF#7): 14.4 | drug sensitivity score (22Rv1): 19.9

CC[C@@H]1C(=O)N(C)c2cnc(Nc3ccc(C(=O)N[C@H]4CC[C@H](N5CCN(CC6CC6)CC5)CC4)cc3OC)nc2N1C(C)C [Volasertib] (tested concentration range 0.1-1000 nM)
drug sensitivity score (CAF#6): 1.9 | drug sensitivity score (CAF#3): 4.2 | drug sensitivity score (CAF#4): 0 | drug sensitivity score (CAF#5): 1.7 | drug sensitivity score (WPMY-1): 11.4 | drug sensitivity score (PF179T): 5.9 | drug sensitivity score (LNCAP): 19.3 | drug sensitivity score (CAF#2): 5.1 | drug sensitivity score (CAF#1): 0.4 | drug sensitivity score (CAF#7): 2.9 | drug sensitivity score (22Rv1): 14.9

O=C(CCCCCCC(=O)Nc1ccccc1)NO [Vorinostat] (tested concentration range 1-10000 nM)
drug sensitivity score (CAF#6): 4.2 | drug sensitivity score (CAF#3): 6.3 | drug sensitivity score (CAF#4): 4.9 | drug sensitivity score (CAF#5): 4.1 | drug sensitivity score (WPMY-1): 9.7 | drug sensitivity score (PF179T): 3.4 | drug sensitivity score (LNCAP): 10 | drug sensitivity score (CAF#2): 6.5 | drug sensitivity score (CAF#1): 4 | drug sensitivity score (CAF#7): 3.1 | drug sensitivity score (22Rv1): 9.7

Oc1nc(-c2ccc(C(F)(F)F)cc2)nc2c1CSCC2 [XAV-939] (tested concentration range 1-10000 nM)
drug sensitivity score (CAF#6): 4 | drug sensitivity score (CAF#3): 2.5 | drug sensitivity score (CAF#4): 2.6 | drug sensitivity score (CAF#5): 4.1 | drug sensitivity score (WPMY-1): 0 | drug sensitivity score (PF179T): 2.6 | drug sensitivity score (LNCAP): 2.1 | drug sensitivity score (CAF#2): 5.4 | drug sensitivity score (CAF#1): 2.6 | drug sensitivity score (CAF#7): 4.3 | drug sensitivity score (22Rv1): 0

Cc1sc2c(c1C)C(c1ccc(Cl)cc1)=N[C@@H](CC(=O)NCCCCNC(=O)COc1cccc3c1C(=O)N(C1CCC(=O)NC1=O)C3=O)c1nnc(C)n1-2 (stereo partly drawn) [dBET1] (tested concentration range 1-10000 nM)
drug sensitivity score (CAF#6): 9.1 | drug sensitivity score (CAF#3): 12 | drug sensitivity score (CAF#4): 6.3 | drug sensitivity score (CAF#5): 8.2 | drug sensitivity score (WPMY-1): 6 | drug sensitivity score (PF179T): 0.2 | drug sensitivity score (LNCAP): 9.1 | drug sensitivity score (CAF#2): 2.7 | drug sensitivity score (CAF#1): 4.5 | drug sensitivity score (CAF#7): 14.2 | drug sensitivity score (22Rv1): 12

From the supplement of paper PMC12592484
